One assay addresses Cdk5/p25 (Homo sapiens, UniProt Q00535). Description: FRET-based Z'-LYTE Cdk5 kinase assay, Cdk5/p25. The class given is biochemical. As to conditions: for inhibition at 30 µM: compound 30 μM, 30 ng/ml Cdk5/p25, FIG. 3; for IC50: Cdk5/p25, Table 1; for inhibition at 200 µM: Cdk5/p25, at 200 μM; for mode of inhibition on Cdk5/p25 complex: 0.5, 1, 2 and 4 μM, increasing ATP, FIG. 11; for inhibitory effect on Cdk5/p25: FIG. 8-10, in words; for inhibition at 80 µM: Cdk5/p25, at 80 μM. The protocol: (§1) Cdk5 kinase assay was performed as described in the instruction manual (Invitrogen, cat. no. PV3673). This assay employs a FRET-based, coupled-enzyme format and is based on the differential sensitivity of phosphorylated and non-phosphorylated peptides to proteolytic cleavage. The assay uses a synthetic peptide substrate (the Z′-LYTE™ peptide substrate) that is labeled with a donor fluorophore (coumarin) and an acceptor fluorophore (fluorescein) to make up a FRET pair. In the primary reaction, Cdk5 transfers the γ-phosphate of ATP to a serine/threonine residue on the substrate, while the presence of a kinase inhibitor in the primary reaction suppresses phosphorylation. […] Cleavage disrupts FRET between the donor and acceptor fluorophores on the non-phosphorylated substrate, while uncleaved phosphorylated substrate maintains FRET. The effectiveness of the compounds on inhibiting the Cdk5 activity is then measured by calculating the emission ratio.
(§2) The plate was then incubated for one hour at room temperature. Development solution was then added in the dark for another hour. […] To calculate the activity of cdk5/p25 and Cdk5/p35, Z′-LYTE phosphopeptide was used as a 100% phosphorylation control while nonphosphorylated Z′-LYTE peptide is used as a 0% phosphorylation control to establish the maximal and minimal emission ratio values which enable to calculate the percentage of kinase phosphorylation. To determine the inhibitory effect on cdk5 activity, fractions and compounds to be tested were included in the kinase reaction. Zero inhibition was determined by using DMSO (solvent) instead of the compounds in the reaction. […] Assays were done in quadruplicates and data was averaged from at least 4 independent experiments. Similar experimental protocols were performed for Cdk1/cyclin B and Cdk2/cyclin A kinase activity study. Activity of each kinase complex was evaluated by titration, and the resultant value of EC30 was used in the inhibitory study. Since activity of kinase complexes varies with different batches of preparation, EC30 will be determined in each new batch of kinases. […] Kinetic studies of compounds were performed by Cdk5/p25 kinase assays with various concentrations of ATP and tested compounds. The kinetic parameters were determined by a nonlinear least-squares program using GraphPad Prism 5 software.
(§3) Using the FRET-based Cdk5 kinase assay method described above, the compounds of the present invention were examined for their inhibitory effects on Cdk5 kinase activity. The amount of Cdk5/25 and Cdk5/p35 used for screening Cdk5 inhibitors is EC30 of the kinase complex and the EC30 was determined with a titration study of kinase complex. The effectiveness of the compounds on inhibiting Cdk5 activity was then measured by comparing the percent phosphorylation of peptide substrates by Cdk5 kinase in the presence of test compounds and percent phosphorylation of peptide substrates by Cdk5 without test compounds.
Seven natural compounds isolated from Rhodiola rosea (F199) were selected for IC50 and maximal inhibition determination. Various concentrations of the F199 compounds were incubated with Cdk5/p25. The effectiveness of the compounds on inhibiting Cdk5 activity was then calculated by comparing the percent phosphorylation of peptide substrates by Cdk5/p25 in the presence of test compounds and percent phosphorylation of peptide substrates by Cdk5/p25 without test compounds.

The target of a further assay is Cdk5/p35 (Homo sapiens, UniProt Q00535). Description: FRET-based Z'-LYTE Cdk5 kinase assay, Cdk5/p35. As to conditions: for inhibition at 30 µM: compound 30 μM, 30 ng/ml Cdk5/p35, FIG. 3; for inhibitory effect on Cdk5/p35: FIG. 8-10, in words. The assay is classed as biochemical. The protocol:
as §1, §2, §3

The target in another assay is Cdk5 (Homo sapiens, UniProt Q00535). As to conditions: reported elsewhere, controls; cited from earlier work.
Cdk5, sequence (Q00535 whole entry, species assumed): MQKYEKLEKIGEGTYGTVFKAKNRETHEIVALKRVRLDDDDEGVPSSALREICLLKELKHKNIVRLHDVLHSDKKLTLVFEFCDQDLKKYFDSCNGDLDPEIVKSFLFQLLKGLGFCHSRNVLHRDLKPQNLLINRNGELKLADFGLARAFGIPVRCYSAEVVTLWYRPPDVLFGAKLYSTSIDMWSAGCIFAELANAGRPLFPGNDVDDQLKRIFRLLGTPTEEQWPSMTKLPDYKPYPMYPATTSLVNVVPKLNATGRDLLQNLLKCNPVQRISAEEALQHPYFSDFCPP
Cdk5, sequence (Q15078 whole entry partner, species assumed): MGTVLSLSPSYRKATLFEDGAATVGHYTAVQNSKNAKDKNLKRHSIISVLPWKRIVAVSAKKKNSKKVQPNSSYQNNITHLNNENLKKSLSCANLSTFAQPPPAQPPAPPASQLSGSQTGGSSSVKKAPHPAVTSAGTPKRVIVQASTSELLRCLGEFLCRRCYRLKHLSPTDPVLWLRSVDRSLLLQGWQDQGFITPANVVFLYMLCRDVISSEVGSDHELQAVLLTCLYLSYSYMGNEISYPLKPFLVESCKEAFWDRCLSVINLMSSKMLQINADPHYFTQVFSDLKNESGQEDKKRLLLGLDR
The next assay concerns rat cortical neurons. Briefly: Aβ assay (MTT) in cortical neurons. The class given is cell-based. The following applies: about 30 and 50 μM, Aβ25-35 10 μM, vs DMSO control. The protocol: Embryonic rat cortical neurons (7 DIV) were pre-treated with various concentrations of compounds (3-50 μM) and then co-incubated with Aβ25-35 (10 μM). After overnight incubation, the MTT assay was performed. Cell survival was calculated as a percentage compared to the vehicle control (DMSO). Assays were conducted in duplicates and data were compared with student-t test. *=P<0.05.
Cortical neurons at 7 DIV in culture isolated from embryonic day 18 rats were used as cell models in the assay. Toxicity caused by Aβ25-35 peptide in these cells was evaluated by MTT detection after […]. The Aβ assay was performed to investigate the ability of the invention to protect cortical neurons from cell death induced by exogenous Aβ25-35 peptide addition. Assays were done in duplicates and data was averaged from at least 3 independent experiments.
Exogenous addition of Aβ initiates cell death of neuronal cultures via apoptosis. The MTT assay, a well-known cell death assay, was performed to study the ability of the compounds of the present invention to prevent Aβ-induced excitotoxicity in primary cortical neuronal cells. Embryonic rat cortical neurons (7 DIV) were pre-treated with various concentrations of the compounds (3-50 μM) and then co-incubated with Aβ25-35 (10 μM). After overnight incubation, the MTT assay was performed. Cell survival was calculated as a percentage compared to the vehicle control (DMSO). Assays were conducted in duplicates and data were analyzed with student-t test. *=P<0.05. The results of exemplary compounds, F199-C6, F199-C34 and F199-C22 are presented in FIG. 5, FIG. 6 and FIG. 7, respectively.

For a further assay, the target named is Cdk1/cyclin B (Homo sapiens, UniProt P06493). Briefly: Z'-LYTE kinase assay, Cdk1/cyclin B. The class given is biochemical. As to conditions: FIG. 8-10, in words. The protocol:
(§4) Cdk5 kinase assay was performed by adding Z′-LYTE™ peptide substrate and ATP together with Cdk5/p25 or Cdk5/p35 kinase solution in a 384-well black polystyrene plate (Corning 3676). The plate was then incubated for one hour at room temperature. Development solution was then added in the dark for another hour. Finally, stop solution was added and the coumarin and fluorescein emission signals were measured on a fluorescence plate reader (Tecan, infinite F500) (excitation: 400 nm, emission 445 and […], respectively). To calculate the activity of cdk5/p25 and Cdk5/p35, Z′-LYTE phosphopeptide was used as a 100% phosphorylation control while nonphosphorylated Z′-LYTE peptide is used as a 0% phosphorylation control to establish the maximal and minimal emission ratio values which enable to calculate the percentage of kinase phosphorylation. To determine the inhibitory effect on cdk5 activity, fractions and compounds to be tested were included in the kinase reaction. Zero inhibition was determined by using DMSO (solvent) instead of the compounds in the reaction. […]. Assays were done in quadruplicates and data was averaged from at least 4 independent experiments. Similar experimental protocols were performed for Cdk1/cyclin B and Cdk2/cyclin A kinase activity study. Activity of each kinase complex was evaluated by titration, and the resultant value of EC30 was used in the inhibitory study. Since activity of kinase complexes varies with different batches of preparation, EC30 will be determined in each new batch of kinases. […] Kinetic studies of compounds were performed by Cdk5/p25 kinase assays with various concentrations of ATP and tested compounds. The kinetic parameters were determined by a nonlinear least-squares program using GraphPad Prism 5 software.

In a further assay the target is Cdk2/cyclin A (Homo sapiens, UniProt P24941). Description: Z'-LYTE kinase assay, Cdk2/cyclin A. The assay is classed as biochemical. The following applies: FIG. 8-10, in words. How it is done: as §4
The test system of a further assay is formalin-induced pain. Briefly: Animal model of pain (formalin paw-licking). The assay is classed as in vivo, mice. The protocol:
Adult ICR mice (6-8 week-old) habituated in the experimental room for 3 days before the testing. Testing was conducted from 9 am to 3 pm. Mice were randomly grouped and weighed. Mice were pretreated with a single dose of F199-C16 (10-100 mg/kg, intraperitoneal injection) and then injected with 10 μl of 2.5% formalin in the subplantar of the right hind paw. The licking time (in seconds) was recorded during 0-10 minutes (early phase) and in 11-40 minutes (late phase) after formalin injection. The whole process was monitored and recorded by a digital monochrome video camera. Data were expressed as the mean±SEM. (*p<0.05; ANOVA, with Student-Newman Keuls test).
The effect of F199-C16 was examined in an animal model of pain. The pain was induced by injecting formalin into the paw of the mouse.

Cdk5/p35, sequence (Q00535 whole entry, species assumed): as the sequence (Q00535 whole entry, species assumed) above
Cdk5/p35, sequence (Q15078 whole entry partner, species assumed): as the sequence (Q15078 whole entry partner, species assumed) above
Cdk5/p25, sequence (Q00535 whole entry, species assumed): as the sequence (Q00535 whole entry, species assumed) above
Cdk5/p25, sequence (Q15078 99-307 partner limits assumed, species assumed): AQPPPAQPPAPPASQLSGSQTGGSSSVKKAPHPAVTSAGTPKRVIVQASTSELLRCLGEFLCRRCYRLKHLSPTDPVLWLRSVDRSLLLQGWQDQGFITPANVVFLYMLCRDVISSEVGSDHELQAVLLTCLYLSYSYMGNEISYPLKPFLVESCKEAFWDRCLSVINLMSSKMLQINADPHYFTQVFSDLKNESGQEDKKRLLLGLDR
Cdk1/cyclin B, sequence (P06493 whole entry, species assumed): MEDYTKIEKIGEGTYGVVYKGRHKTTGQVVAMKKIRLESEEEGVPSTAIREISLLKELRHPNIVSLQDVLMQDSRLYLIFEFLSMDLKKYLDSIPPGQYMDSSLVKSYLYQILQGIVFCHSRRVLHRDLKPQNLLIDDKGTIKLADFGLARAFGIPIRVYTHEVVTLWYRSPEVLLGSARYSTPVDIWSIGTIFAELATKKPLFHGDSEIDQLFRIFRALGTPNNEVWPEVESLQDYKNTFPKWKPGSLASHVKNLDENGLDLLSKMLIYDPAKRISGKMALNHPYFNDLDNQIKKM
Cdk1/cyclin B, sequence (P14635 whole entry partner, species assumed): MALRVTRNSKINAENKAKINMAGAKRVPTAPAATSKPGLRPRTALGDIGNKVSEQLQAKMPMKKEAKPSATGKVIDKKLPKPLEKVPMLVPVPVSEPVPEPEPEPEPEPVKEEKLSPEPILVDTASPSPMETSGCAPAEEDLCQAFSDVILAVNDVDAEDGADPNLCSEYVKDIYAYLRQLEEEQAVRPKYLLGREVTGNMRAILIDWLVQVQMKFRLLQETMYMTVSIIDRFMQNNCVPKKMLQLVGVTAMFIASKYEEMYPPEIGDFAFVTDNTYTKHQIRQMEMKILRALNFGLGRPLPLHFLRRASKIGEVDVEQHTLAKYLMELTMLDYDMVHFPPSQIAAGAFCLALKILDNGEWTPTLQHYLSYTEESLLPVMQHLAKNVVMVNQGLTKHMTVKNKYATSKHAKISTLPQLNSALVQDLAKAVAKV

On to `CC[C@H](CC[C@@H](C)[C@H]1CC[C@H]2[C@@H]3CC=C4C[C@@H](O[C@@H]5O[C@H](CO)[C@@H](O)[C@H](O)[C@H]5O)CC[C@]4(C)[C@H]3CC[C@]12C)C(C)C` [Compound F199-C1, daucosterol, reference compound], for which the inhibition at 30 µM against Cdk5/p25 and against Cdk5/p35 was under 25% each time. In addition, on Cdk5, the “reported inhibition of Cdk5 activity” value is recorded as “moderately inhibit Cdk5 activity”.
Turning to `O=c1c(O)c(-c2ccc(O)cc2)oc2cc(O)cc(O)c12` [Compound F199-C2, kaempferol], the “reported inhibition of Cdk5 activity” value at Cdk5 was “moderately inhibit Cdk5 activity”.
The compound `O=C(O)c1cc(O)c(O)c(O)c1` [Compound F199-C4, gallic acid] registered an IC50 against Cdk5/p25 of 40.6 µM. The inhibition at 200 µM on Cdk5/p25 (read-out: Maximum inhibition) amounted to 64.2%. The inhibition at 30 µM on Cdk5/p25 and on Cdk5/p35 was 25 to 50% in each case.
On Cdk5/p25, `O=c1c(O)c(-c2ccc(O)cc2)oc2c(OC3OCC(O)C(O)C3O)c(O)cc(O)c12` (stereo not shown) [Compound F199-C6, rhodalin] returned an IC50 of 34.4 µM and an inhibition at 30 µM of 25 to 50%. Also, the inhibition at 200 µM on Cdk5/p25 (read-out: Maximum inhibition) turned out to be 56.6%. Moreover, the inhibition at 30 µM at Cdk5/p35 was in the range of 25 to 50%. The “neuronal cell survival against Aβ toxicity” value (shortened to “neuronal cell survival”) with rat cortical neurons is “significantly promoted neuronal cell survival”.
With `CC1OC(Oc2c(O)cc(O)c3c(=O)c(O)c(-c4ccc(O)cc4)oc23)C(O)C(O)C1O` (stereo not shown) [Compound F199-C16, litvinolin], at Cdk5/p25, the “mode of inhibition on Cdk5/p25 complex” value was “mixed inhibition”, the IC50 stood at 3.24 µM, the “inhibitory effect on Cdk5/p25” value is on record as “milder inhibition” and the inhibition at 30 µM is 50 to 75%. The inhibition at 200 µM on Cdk5/p25 (read-out: Maximum inhibition) came to 87.5%. Moreover, at Cdk5/p35, the “inhibitory effect on Cdk5/p35” value is “milder inhibition” and the inhibition at 30 µM fell in the range of 50 to 75%. The “inhibitory effect on Cdk1/cyclin B” value at Cdk1/cyclin B is “potently”. The “inhibitory effect on Cdk2/cyclin A” value against Cdk2/cyclin A is reported as “minimal”. Besides, in the assay on formalin-induced pain (100 mg/kg i.p.), the “licking time, early phase (0-10 min)” value is reported as “significantly reduced the licking time” and the “licking time, late phase (11-40 min)” value is “significantly reduced the licking time”. Moreover, the “licking time of right hind paw” value in the assay with formalin-induced pain (10-100 mg/kg i.p., single dose, formalin) was “reduced the licking time of right hind paw in a dose-dependent manner”.
With `O=C(OCC1OC(OC/C=C/c2ccccc2)C(O)C(O)C1O)c1cc(O)c(O)c(O)c1` (stereo not shown) [Compound F199-C22, 6-O-galloyl rosin], on Cdk5/p25, the IC50 came out at 20.1 µM and the inhibition at 30 µM is under 25%. Besides, the inhibition at 80 µM at Cdk5/p25 (read-out: Maximum inhibition) is 46.5%. This compound registered an inhibition at 30 µM on Cdk5/p35 of under 25%. In addition, the “neuronal cell survival” value in the assay on rat cortical neurons is on record as “significantly promoted neuronal cell survival”.
Consider `COc1ccc(-c2oc3c(O)c(O)cc(O)c3c(=O)c2O)cc1` [Compound F199-C23, 4′-methoxyherbacetin], for which, on Cdk5/p25, the “mode of inhibition on Cdk5/p25 complex” value is “mixed inhibition”, inhibition was half-maximal at 1.21 µM (IC50), the “inhibitory effect on Cdk5/p25” value is listed as “inhibited similarly” and the inhibition at 30 µM was 50 to 75%. Moreover, the inhibition at 20 µM on Cdk5/p25 (Cdk5/p25, at 20 μM, read-out: Maximum inhibition) stood at 45%. Also, on Cdk5/p35, the “inhibitory effect on Cdk5/p35” value is recorded as “inhibited similarly” and the inhibition at 30 µM lay within 50 to 75%. Also, the “inhibitory effect on Cdk1/cyclin B” value against Cdk1/cyclin B is given as “inhibited similarly”. The “inhibitory effect on Cdk2/cyclin A” value on Cdk2/cyclin A is “minimal”.
`O=C(OCC1OC(Oc2ccc(O)cc2)C(O)C(O)C1O)c1cc(O)c(O)c(O)c1` (stereo not shown) [Compound F199-C34, 6-O-galloyl arbutin]: at Cdk5/p25, inhibition was half-maximal at 5.63 µM (IC50), the “inhibitory effect on Cdk5/p25” value is on record as “potent inhibitory effect” and the inhibition at 30 µM was 50 to 75%. Besides, the inhibition at 80 µM on Cdk5/p25 (read-out: Maximum inhibition) came out at 70%. Moreover, at Cdk5/p35, the “inhibitory effect on Cdk5/p35” value is recorded as “less effect” and the inhibition at 30 µM fell in the range of 50 to 75%. For the same compound, the “inhibitory effect on Cdk1/cyclin B” value at Cdk1/cyclin B is “less effect”. The “inhibitory effect on Cdk2/cyclin A” value against Cdk2/cyclin A is “less effect”. Besides, in the assay on rat cortical neurons, the “neuronal cell survival” value is “significantly promoted neuronal cell survival”.
`O=C(O[C@@H]1Cc2c(O)cc(O)cc2O[C@@H]1c1cc(O)c(O)c(O)c1)c1cc(O)c(O)c(O)c1` [Compound F199-C35, epigallocatechin-3-gallate] showed an IC50 at Cdk5/p25 of 14.7 µM.

The inhibition is the share of the control response that was lost under treatment. For orientation: IC50 means the concentration that gives 50% inhibition.

These data come from patent US9629863B2, “CDK5 inhibitors and therapeutic uses thereof” (The Hong Kong University of Science and Technology, priority 2009, dated 2017).
